Source: PMC6950057, “Toxicity, Pharmacokinetics, and Gut Microbiome of Oral Administration of Sesterterpene MHO7 Derived from a Marine Fungus” (Marine Drugs, 2019)
Like-named read-outs stand apart in the source and are kept apart here.

Assay: Tissue distribution after single oral dose
Assay type: in vivo, mice
Settings: for concentration at 8 h / concentration at 12 h / concentration at 20 h / concentration at 30 h / concentration at 1 h / concentration at 4 h / Kp: KM, mouse; for Kp: female
Method: The animals and treatment methods were the same as in the pharmacokinetic studies. Afterwards, the biological samples (n = 6 per group) were collected at 1, 4, 8, 12, 20, and 30 h, and the tissues including heart, liver, spleen, lung, kidney, stomach, intestine, brain, muscle (hind limb), fat (white adipose tissue ), reproductive organs (uterus, fallopian tube and ovary) stomach and its contents, and intestine and its contents, and the blood samples were simultaneously collected. All the tissues were washed with cold physiological saline (4 °C), excess fluid blotted, accurately weighed, and subjected to the processing as described in the sample preparation. QC samples and standard curve series solutions were prepared in the same way of blank gastrointestinal contents and livers, respectively. The concentrations of HQC, MQC, and LQC in mice tissues were 10, 1, and 0.1 μM·L^−1, respectively, and the concentrations of standard curve series solutions were 50, 25, 10, 5, 2.5, 1, 0.5, 0.25, 0.1, and 0.005 μM·L^−1 for high and low concentrations of standard curves.

[1] = kidney, oral 500 mg·kg^−1, female mice, read-out: Concentration in Kidney
[2] = liver, oral 500 mg·kg^−1, female mice, read-out: Concentration in Liver
[3] = lung, oral 500 mg·kg^−1, female mice, read-out: Concentration in Lung
[4] = muscle (hind limb), oral 500 mg·kg^−1, female mice, read-out: Concentration in Muscle
[5] = reproductive organs (uterus, fallopian tube and ovary), oral 500 mg·kg^−1, female mice, read-out: Concentration in Reproductive organs
[6] = spleen, oral 500 mg·kg^−1, female mice, read-out: Concentration in Spleen

**Q.** Which results are given for `CC(C)=C/C=C/[C@H](C)[C@H]1CC[C@]2(C)C[C@@H]3C(C)=CC(=O)[C@H]3/C(C=O)=C\C[C@@H]12` [MHO7, 6-epi-ophiobolin G]?
**A.** concentration at 8 h [1]: 1660 ± 740 ng/g; concentration at 12 h [1]: 8160 ± 6230 ng/g; concentration at 20 h [1]: 390 ± 90 ng/g; concentration at 30 h [1]: 70 ± 10 ng/g; concentration at 1 h [2]: 3010 ± 1530 ng/g; concentration at 4 h [2]: 1640 ± 1090 ng/g; concentration at 8 h [2]: 180 ± 220 ng/g; concentration at 12 h [2]: 490 ± 370 ng/g; concentration at 20 h [2]: 60 ± 50 ng/g; concentration at 30 h [2]: 10 ± 10 ng/g; concentration at 1 h [3]: 430 ± 180 ng/g; concentration at 4 h [3]: 1060 ± 450 ng/g; concentration at 8 h [3]: 820 ± 710 ng/g; concentration at 12 h [3]: 2340 ± 1910 ng/g; concentration at 20 h [3]: 160 ± 40 ng/g; concentration at 30 h [3]: 80 ± 20 ng/g; concentration at 1 h [4]: 310 ± 220 ng/g; concentration at 4 h [4]: 970 ± 480 ng/g; concentration at 8 h [4]: 640 ± 370 ng/g; concentration at 12 h [4]: 1420 ± 800 ng/g; concentration at 20 h [4]: 170 ± 100 ng/g; concentration at 30 h [4]: 20 ± 3 ng/g; concentration at 1 h [5]: 880 ± 680 ng/g; concentration at 4 h [5]: 2290 ± 1800 ng/g; concentration at 8 h [5]: 23900 ± 11300 ng/g; concentration at 12 h [5]: 13700 ± 10300 ng/g; concentration at 20 h [5]: 1460 ± 1230 ng/g; concentration at 30 h [5]: 360 ± 460 ng/g; concentration at 1 h [6]: 40 ± 30 ng/g; concentration at 4 h [6]: 430 ± 200 ng/g; concentration at 8 h [6]: 480 ± 500 ng/g; concentration at 12 h [6]: 200 ± 140 ng/g; concentration at 20 h [6]: 310 ± 20 ng/g; concentration at 30 h [6]: 10 ± 4 ng/g; Kp (brain, over 1-30 h, oral 500 mg·kg^−1, read-out: tissue/plasma concentration ratio range, brain): 0.36 to 6.11; Kp (fat (white adipose tissue), over 1-30 h, oral 500 mg·kg^−1, read-out: tissue/plasma concentration ratio range, fat): 2.33 to 14; Kp (heart / plasma, over 1-30 h, oral 500 mg·kg^−1, read-out: tissue/plasma concentration ratio range, heart): 0.31 to 4.2; Kp (intestines, oral 500 mg·kg^−1, read-out: tissue/plasma concentration ratio, intestines): > 100; Kp (kidney, over 1-30 h, oral 500 mg·kg^−1, read-out: tissue/plasma concentration ratio range, kidney): 0.68 to 17.2; Kp (liver, over 1-30 h, oral 500 mg·kg^−1, read-out: tissue/plasma concentration ratio range, liver): 0.18 to 17.4; Kp (lung, over 1-30 h, oral 500 mg·kg^−1, read-out: tissue/plasma concentration ratio range, lung): 0.72 to 6.84; Kp (muscle (hind limb), over 1-30 h, oral 500 mg·kg^−1, read-out: tissue/plasma concentration ratio range, muscle): 0.99 to 5.54; Kp (reproductive organs (uterus, fallopian tube and ovary), over 1-30 h, oral 500 mg·kg^−1, read-out: tissue/plasma concentration ratio range, reproductive organs): 6.05 to 30.4; Kp (spleen, over 1-30 h, oral 500 mg·kg^−1, read-out: tissue/plasma concentration ratio range, spleen): 0.28 to 8.55; Kp (stomach, oral 500 mg·kg^−1, read-out: tissue/plasma concentration ratio, stomach): > 1000; amount in the intestine and its contents, of the intake (oral 500 mg·kg^−1, female mice): less than 5%; amount in the stomach and its contents, of the intake (oral 500 mg·kg^−1, female mice): 16.79%; concentration range in fat (over 1-30 h, oral 500 mg·kg^−1): 0.18–11.15; concentration range in the brain (over 1-30 h, oral 500 mg·kg^−1): 0.01–0.95; concentration range in the heart (over 1-30 h, oral 500 mg·kg^−1): 0.04–0.85; concentration range in the kidney (over 1-30 h, oral 500 mg·kg^−1): 0.07–8.16; concentration range in the liver (over 1-30 h, oral 500 mg·kg^−1): 0.01–3.01; concentration range in the lung (over 1-30 h, oral 500 mg·kg^−1): 0.08–2.34; concentration range in the muscle (over 1-30 h, oral 500 mg·kg^−1): 0.02–1.42; concentration range in the reproductive organs (over 1-30 h, oral 500 mg·kg^−1): 0.36–23.90; concentration range in the spleen (over 1-30 h, oral 500 mg·kg^−1): 0.01–0.48
